Laboratory results from the NIST ThermoML archive (doi:10.1021/acs.jced.8b00132).
“And” between values parts separate entries of the source, which are not always exact repeats. Equal values may be shown once. ± gives the expanded uncertainty stated by the source.

O=C(C(F)(F)C(F)(F)F)C(F)(C(F)(F)F)C(F)(F)F [dodecafluoro-2-methylpentan-3-one]
thermal conductivity (303.37 K, 4422 kPa, Liquid, transient hot wire): 0.05844 ± 0.0012 W/m/K | thermal conductivity (303.37 K, 4436 kPa, Liquid, transient hot wire): 0.05841 ± 0.0012 W/m/K | thermal conductivity (303.38 K, 22430 kPa, Liquid, transient hot wire): 0.06522 ± 0.0013 W/m/K | thermal conductivity (303.38 K, 22431 kPa, Liquid, transient hot wire): 0.06529 ± 0.0014 W/m/K | thermal conductivity (303.46 K, 36 kPa, Gas, transient hot wire): 0.01187 ± 0.0047 W/m/K | thermal conductivity (303.46 K, 38 kPa, Gas, transient hot wire): 0.01198 ± 0.00076 W/m/K | thermal conductivity (303.46 K, 91 kPa, Liquid, transient hot wire): 0.05636 ± 0.0012 W/m/K | thermal conductivity (303.46 K, 92 kPa, Liquid, transient hot wire): 0.05637 ± 0.0012 W/m/K | thermal conductivity (311.78 K, 60 kPa, Gas, transient hot wire): 0.01276 ± 0.0008 W/m/K | thermal conductivity (311.78 K, 63 kPa, Gas, transient hot wire): 0.01265 ± 0.00079 W/m/K | thermal conductivity (311.79 K, 63 kPa, Gas, transient hot wire): 0.01255 ± 0.00078 W/m/K | thermal conductivity (311.95 K, 34 kPa, Gas, transient hot wire): 0.01258 ± 0.00079 W/m/K | thermal conductivity (312.1 K, 61 kPa, Gas, transient hot wire): 0.01276 ± 0.00079 W/m/K | thermal conductivity (312.11 K, 63 kPa, Gas, transient hot wire): 0.0127 ± 0.00079 W/m/K | thermal conductivity (312.12 K, 63 kPa, Gas, transient hot wire): 0.01261 ± 0.00078 W/m/K | thermal conductivity (312.3 K, 34 kPa, Gas, transient hot wire): 0.01253 ± 0.00079 W/m/K | thermal conductivity (312.43 K, 61 kPa, Gas, transient hot wire): 0.01283 ± 0.0008 W/m/K | thermal conductivity (312.43 K, 63 kPa, Gas, transient hot wire): 0.01278 ± 0.0008 W/m/K | thermal conductivity (312.46 K, 63 kPa, Gas, transient hot wire): 0.01291 ± 0.00081 W/m/K | thermal conductivity (312.66 K, 34 kPa, Gas, transient hot wire): 0.01257 ± 0.00079 W/m/K | thermal conductivity (312.81 K, 61 kPa, Gas, transient hot wire): 0.01287 ± 0.00082 W/m/K | thermal conductivity (312.81 K, 63 kPa, Gas, transient hot wire): 0.01297 ± 0.00082 W/m/K | thermal conductivity (312.83 K, 63 kPa, Gas, transient hot wire): 0.01281 ± 0.00081 W/m/K | thermal conductivity (313.06 K, 34 kPa, Gas, transient hot wire): 0.01264 ± 0.0008 W/m/K | thermal conductivity (313.22 K, 61 kPa, Gas, transient hot wire): 0.01297 ± 0.00082 W/m/K | thermal conductivity (313.22 K, 63 kPa, Gas, transient hot wire): 0.01291 ± 0.00081 W/m/K | thermal conductivity (313.24 K, 63 kPa, Gas, transient hot wire): 0.01285 ± 0.0008 W/m/K | thermal conductivity (313.49 K, 34 kPa, Gas, transient hot wire): 0.01265 ± 0.0008 W/m/K | thermal conductivity (315 K, 42 kPa, Gas, hot wire): 0.01266 ± 0.00059 W/m/K and 0.01273 ± 0.0006 W/m/K | thermal conductivity (315.01 K, 24 kPa, Gas, hot wire): 0.01262 ± 0.00059 W/m/K and 0.01267 ± 0.00059 W/m/K | thermal conductivity (315.03 K, 68 kPa, Gas, hot wire): 0.01269 ± 0.0006 W/m/K | thermal conductivity (315.05 K, 69 kPa, Gas, hot wire): 0.01239 ± 0.0006 W/m/K | thermal conductivity (315.06 K, 73 kPa, Gas, hot wire): 0.01282 ± 0.00061 W/m/K | thermal conductivity (315.08 K, 73 kPa, Gas, hot wire): 0.0128 ± 0.0006 W/m/K | thermal conductivity (315.18 K, 42 kPa, Gas, hot wire): 0.0127 ± 0.0006 W/m/K | thermal conductivity (315.19 K, 24 kPa, Gas, hot wire): 0.01259 ± 0.00059 W/m/K | thermal conductivity (315.23 K, 68 kPa, Gas, hot wire): 0.01265 ± 0.00059 W/m/K | thermal conductivity (315.26 K, 68 kPa, Gas, hot wire): 0.01263 ± 0.00059 W/m/K | thermal conductivity (315.26 K, 73 kPa, Gas, hot wire): 0.01275 ± 0.0006 W/m/K and 0.01272 ± 0.0006 W/m/K | thermal conductivity (315.38 K, 24 kPa, Gas, hot wire): 0.01262 ± 0.00059 W/m/K | thermal conductivity (315.39 K, 24 kPa, Gas, hot wire): 0.01261 ± 0.00059 W/m/K | thermal conductivity (315.39 K, 42 kPa, Gas, hot wire): 0.01258 ± 0.00059 W/m/K and 0.0126 ± 0.00059 W/m/K | thermal conductivity (315.45 K, 73 kPa, Gas, hot wire): 0.01275 ± 0.0006 W/m/K and 0.01277 ± 0.0006 W/m/K | thermal conductivity (315.48 K, 67 kPa, Gas, hot wire): 0.01259 ± 0.00059 W/m/K | thermal conductivity (315.48 K, 68 kPa, Gas, hot wire): 0.01258 ± 0.00059 W/m/K | thermal conductivity (315.6 K, 24 kPa, Gas, hot wire): 0.01263 ± 0.00059 W/m/K | thermal conductivity (315.6 K, 42 kPa, Gas, hot wire): 0.01262 ± 0.00059 W/m/K | thermal conductivity (315.61 K, 41 kPa, Gas, hot wire): 0.01258 ± 0.00059 W/m/K | thermal conductivity (315.65 K, 73 kPa, Gas, hot wire): 0.01278 ± 0.0006 W/m/K | thermal conductivity (315.66 K, 73 kPa, Gas, hot wire): 0.01275 ± 0.0006 W/m/K | thermal conductivity (315.7 K, 67 kPa, Gas, hot wire): 0.01258 ± 0.00059 W/m/K and 0.01255 ± 0.00059 W/m/K | thermal conductivity (315.82 K, 24 kPa, Gas, hot wire): 0.01264 ± 0.00059 W/m/K and 0.01263 ± 0.00059 W/m/K | thermal conductivity (315.84 K, 41 kPa, Gas, hot wire): 0.01259 ± 0.00059 W/m/K | thermal conductivity (315.85 K, 42 kPa, Gas, hot wire): 0.01252 ± 0.00059 W/m/K | thermal conductivity (315.87 K, 73 kPa, Gas, hot wire): 0.01277 ± 0.00061 W/m/K and 0.01278 ± 0.00061 W/m/K | thermal conductivity (315.91 K, 67 kPa, Gas, hot wire): 0.01259 ± 0.00059 W/m/K | thermal conductivity (315.92 K, 67 kPa, Gas, hot wire): 0.01258 ± 0.00059 W/m/K | thermal conductivity (321.61 K, 79 kPa, Gas, transient hot wire): 0.01361 ± 0.00085 W/m/K | thermal conductivity (321.66 K, 65 kPa, Gas, transient hot wire): 0.01365 ± 0.00085 W/m/K | thermal conductivity (321.69 K, 64 kPa, Gas, transient hot wire): 0.01346 ± 0.00084 W/m/K | thermal conductivity (321.92 K, 78 kPa, Gas, transient hot wire): 0.01359 ± 0.00084 W/m/K | thermal conductivity (321.97 K, 66 kPa, Gas, transient hot wire): 0.01368 ± 0.0014 W/m/K | thermal conductivity (322.01 K, 64 kPa, Gas, transient hot wire): 0.01355 ± 0.00084 W/m/K | thermal conductivity (322.24 K, 77 kPa, Gas, transient hot wire): 0.01349 ± 0.00084 W/m/K | thermal conductivity (322.3 K, 66 kPa, Gas, transient hot wire): 0.01358 ± 0.001 W/m/K | thermal conductivity (322.35 K, 64 kPa, Gas, transient hot wire): 0.01367 ± 0.00085 W/m/K | thermal conductivity (322.6 K, 77 kPa, Gas, transient hot wire): 0.0137 ± 0.00085 W/m/K | thermal conductivity (322.68 K, 66 kPa, Gas, transient hot wire): 0.01369 ± 0.00099 W/m/K | thermal conductivity (322.7 K, 62 kPa, Gas, transient hot wire): 0.01363 ± 0.00085 W/m/K | thermal conductivity (322.99 K, 77 kPa, Gas, transient hot wire): 0.01375 ± 0.00086 W/m/K | thermal conductivity (323.07 K, 66 kPa, Gas, transient hot wire): 0.01363 ± 0.00085 W/m/K | thermal conductivity (323.09 K, 62 kPa, Gas, transient hot wire): 0.0139 ± 0.00087 W/m/K | thermal conductivity (329.07 K, 105 kPa, Gas, hot wire): 0.01379 ± 0.00065 W/m/K and 0.0138 ± 0.00065 W/m/K | thermal conductivity (329.1 K, 72 kPa, Gas, hot wire): 0.01387 ± 0.00066 W/m/K | thermal conductivity (329.1 K, 73 kPa, Gas, hot wire): 0.01371 ± 0.00065 W/m/K and 0.01367 ± 0.00065 W/m/K | thermal conductivity (329.12 K, 72 kPa, Gas, hot wire): 0.01364 ± 0.00065 W/m/K | thermal conductivity (329.19 K, 27 kPa, Gas, hot wire): 0.01341 ± 0.00063 W/m/K | thermal conductivity (329.19 K, 120 kPa, Gas, hot wire): 0.01389 ± 0.00065 W/m/K | thermal conductivity (329.2 K, 26 kPa, Gas, hot wire): 0.01335 ± 0.00063 W/m/K | thermal conductivity (329.21 K, 120 kPa, Gas, hot wire): 0.01385 ± 0.00065 W/m/K | thermal conductivity (329.22 K, 27 kPa, Gas, hot wire): 0.01411 ± 0.00067 W/m/K | thermal conductivity (329.23 K, 26 kPa, Gas, hot wire): 0.014 ± 0.00066 W/m/K | thermal conductivity (329.23 K, 105 kPa, Gas, hot wire): 0.01384 ± 0.00065 W/m/K and 0.01389 ± 0.00065 W/m/K | thermal conductivity (329.25 K, 72 kPa, Gas, hot wire): 0.01368 ± 0.00064 W/m/K
